In data set [1] the test system is Spodoptera littoralis (Egyptian cotton leaf worm). Description: Example B1: Spodoptera littoralis, sprayed cotton leaf discs. The class given is in vivo. The settings on record: foliar, 72 h, application rate 200 ppm, L1 larvae, 3 days after infestation, read-out: control in at least one of the three categories (mortality, anti-feedancy or growth inhibition). The method, then: Cotton leaf discs were placed on agar in 24-well microtiter plates and sprayed with aqueous test solutions prepared from 10,000 ppm DMSO stock solutions. After drying the leaf discs were infested with five L1 larvae. The samples were assessed for mortality, anti-feedant effect, and growth inhibition in comparison to untreated samples 3 days after infestation. Control of Spodoptera littoralis by a test sample is when at least one of mortality, anti-feedant effect, and growth inhibition is higher than the untreated sample.

Data set [2] has the same test system. Nature of the data set: Example B2: Spodoptera littoralis, systemic test via lettuce roots in agar. The format is in vivo. Conditions: 144 h, application rate 12.5 ppm, Spodoptera eggs, 6 days after infestation, read-out: control in at least one of the three categories (mortality, anti-feedancy or growth inhibition). The text has this: Test compounds were applied by pipette from 10,000 ppm DMSO stock solutions into 24-well plates and mixed with agar. Lettuce seeds were placed on the agar and the multi well plate was closed by another plate which contains also agar. After 7 days the roots have absorbed the compound and the lettuce has grown into the lid plate. The lettuce leafs were now cut off into the lid plate. Spodoptera eggs were pipetted through a plastic stencil on a humid gel blotting paper and the plate closed with it. The samples were assessed for mortality, anti-feedant effect and growth inhibition in comparison to untreated samples 6 days after infestation.
The following compounds gave an effect of at least 80% control in at least one of the three categories (mortality, anti-feedancy or growth inhibition) at an application rate of 12.5 ppm: P2, P3, P8, P9, P11 and P17, P19, P20, P22, P23, P25, P26, P28, P30, P31, P32, P33, P40, P42, P43, P44, P45, P46, P47, P48, P49, P50, P51, P52, P53, P54, P60 and P61.

For data set [3], the system named is Plutella xylostella (diamond back moth). Nature of the data set: Example B3: Plutella xylostella, treated artificial diet. The class given is in vivo. The settings on record: 120 h, application rate 200 ppm, L2 larvae, 5 days after infestation, read-out: effect in at least one of the two categories (mortality or growth inhibition). The method, then: 24-well microtiter plates with artificial diet were treated with aqueous test solutions prepared from 10,000 ppm DMSO stock solutions by pipetting. After drying, the plates were infested with L2 larvae (10 to 15 per well). The samples were assessed for mortality and growth inhibition in comparison to untreated samples 5 days after infestation.

For data set [4], the system named is Diabrotica balteata (corn root worm). Description: Example B4: Diabrotica balteata, sprayed maize sprouts. The class given is in vivo. Conditions: 96 h, application rate 200 ppm, L2 larvae, 4 days after infestation, read-out: effect in at least one of the two categories (mortality or growth inhibition). On the procedure:
Maize sprouts, placed on an agar layer in 24-well microtiter plates were treated with aqueous test solutions prepared from 10,000 ppm DMSO stock solutions by spraying. After drying, the plates were infested with L2 larvae (6 to 10 per well). The samples were assessed for mortality and growth inhibition in comparison to untreated samples 4 days after infestation.

Data set [5] relates to Myzus persicae (green peach aphid). Description: Example B5: Myzus persicae, sprayed sunflower leaf discs. The format is in vivo. Conditions: foliar, 144 h, application rate 200 ppm, aphid population of mixed ages, 6 days after infestation. The method, then:
Sunflower leaf discs were placed on agar in a 24-well microtiter plate and sprayed with aqueous test solutions prepared from 10,000 ppm DMSO stock solutions. After drying, the leaf discs were infested with an aphid population of mixed ages. The samples were assessed for mortality 6 days after infestation.

In data set [6] the test system is Euschistus heros (neotropical brown stink bug). Description: Example B6: Euschistus heros, sprayed soybean leaf. The class given is in vivo. The settings on record: 120 h, application rate 200 ppm, N-2 nymphs, 5 days after infestation. From the text: Soybean leaf on agar in 24-well microtiter plates were sprayed with aqueous test solutions prepared from 10,000 ppm DMSO stock solutions. After drying the leaf were infested with N-2 nymphs.

The test system of data set [7] is Tetranychus urticae (two-spotted spider mite). Nature of the data set: Example B8: Tetranychus urticae, sprayed bean leaf discs. The class given is in vivo. Conditions: foliar, 192 h, application rate 200 ppm, mixed population (mobile stages), 8 days after infestation. The text has this: Bean leaf discs on agar in 24-well microtiter plates were sprayed with aqueous test solutions prepared from 10,000 ppm DMSO stock solutions. After drying the leaf discs were infested with a mite population of mixed ages.

SMILES strings stand for the structures.

19 compounds from patent US10494366B2, “Pesticidally active amide heterocyclic derivatives with sulphur containing substituents” (Syngenta Participations AG, priority 2014, dated 2019) can be followed below.

A word on the melting point: it is the temperature, or range, at which the solid turns liquid. As a reminder, the mortality is the share of the test organisms that died. High values mean fewer survivors, low ones more survivors.

The compound `CCSc1cc(-n2ccc(C(F)(F)F)n2)cnc1C(=O)/N=c1\sc(C(F)(F)C(F)(F)F)nn1C` gave a melting point of 219 to 221 °C.
Consider `CCS(=O)(=O)c1cc(-c2nc(C(F)(F)F)cs2)cnc1C(=O)/N=c1\sc(C(F)(F)F)nn1C` [Compound P60], for which the percent control (mortality, anti-feedant effect or growth inhibition) at 200 ppm in data set [1] is at least 80%. Further, the percent control (mortality, anti-feedant effect or growth inhibition) at 12.5 ppm in data set [2] was at least 80%. The percent effect (mortality or growth inhibition) at 200 ppm in data set [3] and in data set [4] was at least 80% each time. This compound showed a mortality at 200 ppm in data set [5] of at least 80%.
For the compound `CCS(=O)(=O)c1cc(-c2nccc(C(F)(F)F)n2)cnc1C(=O)/N=c1\sc(C(F)(F)F)nn1C` [Compound P40], the percent control (mortality, anti-feedant effect or growth inhibition) at 200 ppm in data set [1] is at least 80%. In data set [2], the percent control (mortality, anti-feedant effect or growth inhibition) at 12.5 ppm is at least 80%. For the same compound, the percent effect (mortality or growth inhibition) at 200 ppm in data set [3] and in data set [4] was at least 80% in each case. The mortality at 200 ppm in data set [5] and in data set [6] was at least 80% in each case.
As to `CCS(=O)(=O)c1cc(-c2cccc3c2OC(F)(F)O3)cnc1C(=O)/N=c1\sc(C(F)(F)F)nn1C` [Compound P29], in data set [1], the percent control (mortality, anti-feedant effect or growth inhibition) at 200 ppm was at least 80%. Moreover, the percent effect (mortality or growth inhibition) at 200 ppm in data set [3] and in data set [4] was at least 80% throughout. The mortality at 200 ppm in data set [6] and in data set [7] was at least 80% throughout.
For the compound `CCS(=O)(=O)c1cc(-c2ccccn2)cnc1C(=O)/N=c1\sc(C(F)(F)F)nn1C` [Compound P51], the percent control (mortality, anti-feedant effect or growth inhibition) at 200 ppm in data set [1] was at least 80%. For the same compound, the percent control (mortality, anti-feedant effect or growth inhibition) at 12.5 ppm in data set [2] was at least 80%. The percent effect (mortality or growth inhibition) at 200 ppm in data set [3] and in data set [4] was at least 80% throughout. Also, the mortality at 200 ppm in data set [5] and in data set [6] was at least 80% throughout.
With `CCS(=O)(=O)c1cc(-c2ncc(Cl)cc2Cl)cnc1C(=O)/N=c1\sc(C(F)(F)F)nn1C` [Compound P46], the percent control (mortality, anti-feedant effect or growth inhibition) at 200 ppm in data set [1] was at least 80%. Further, the percent control (mortality, anti-feedant effect or growth inhibition) at 12.5 ppm in data set [2] was at least 80%. In addition, the percent effect (mortality or growth inhibition) at 200 ppm in data set [3] and in data set [4] was at least 80% in each case. The mortality at 200 ppm in data set [5] and in data set [6] was at least 80% each time.
Regarding `CCS(=O)(=O)c1cc(-c2ccc(Cl)cc2)cnc1C(=O)/N=c1\sc(C(F)(F)F)nn1C` [Compound P2, (N)-5-(4-chlorophenyl)-3-ethylsulfonyl-N-[3-methyl-5-(trifluoromethyl)-1,3,4-thiadiazol-2-ylidene]pyridine-2-carboxamide], in data set [1], the percent control (mortality, anti-feedant effect or growth inhibition) at 200 ppm is at least 80%. The percent control (mortality, anti-feedant effect or growth inhibition) at 12.5 ppm in data set [2] is at least 80%. Moreover, the percent effect (mortality or growth inhibition) at 200 ppm in data set [3] and in data set [4] was at least 80% in each case. The mortality at 200 ppm in data set [5] and in data set [6] was at least 80% in each case.
In the case of `CCS(=O)(=O)c1cc(-c2ccc(Cl)cc2)cnc1C(=O)/N=c1\sc(C(F)(F)C(F)(F)F)nn1C` [Compound P11], the percent control (mortality, anti-feedant effect or growth inhibition) at 200 ppm in data set [1] is at least 80%. In data set [2], the percent control (mortality, anti-feedant effect or growth inhibition) at 12.5 ppm was at least 80%. Also, the percent effect (mortality or growth inhibition) at 200 ppm in data set [3] and in data set [4] was at least 80% each time. In addition, the mortality at 200 ppm in data set [5] and in data set [6] was at least 80% throughout.
With `CCS(=O)(=O)c1cc(-c2ccc(C(F)(F)F)cc2)cnc1C(=O)/N=c1\sc(C(F)(F)F)nn1C` [Compound P5], in data set [1], the percent control (mortality, anti-feedant effect or growth inhibition) at 200 ppm was at least 80%. Moreover, the percent effect (mortality or growth inhibition) at 200 ppm in data set [3] and in data set [4] was at least 80% throughout. In addition, the mortality at 200 ppm in data set [5] and in data set [6] was at least 80% throughout.
Consider `CCS(=O)(=O)c1cc(-c2cc(C(F)(F)F)ccn2)cnc1C(=O)/N=c1\sc(C(F)(F)F)nn1C` [Compound P70], for which the percent control (mortality, anti-feedant effect or growth inhibition) at 200 ppm in data set [1] was at least 80%. For the same compound, the percent effect (mortality or growth inhibition) at 200 ppm in data set [3] and in data set [4] was at least 80% each time. Further, the mortality at 200 ppm in data set [7] is at least 80%.
Turning to `CCS(=O)(=O)c1cc(C2(C#N)CC2)cnc1C(=O)/N=c1\sc(C(F)(F)F)nn1C` [Compound P19], the percent control (mortality, anti-feedant effect or growth inhibition) at 200 ppm in data set [1] is at least 80%. In data set [2], the percent control (mortality, anti-feedant effect or growth inhibition) at 12.5 ppm is at least 80%. For the same compound, the percent effect (mortality or growth inhibition) at 200 ppm in data set [3] and in data set [4] was at least 80% each time. Further, the mortality at 200 ppm in data set [5] and in data set [6] was at least 80% each time.
Turning to `CCS(=O)(=O)c1cc(-c2cncc(C(F)(F)F)c2)cnc1C(=O)/N=c1\sc(C(F)(F)F)nn1C` [Compound P53], the percent control (mortality, anti-feedant effect or growth inhibition) at 200 ppm in data set [1] is at least 80%. In addition, the percent control (mortality, anti-feedant effect or growth inhibition) at 12.5 ppm in data set [2] was at least 80%. Also, the percent effect (mortality or growth inhibition) at 200 ppm in data set [3] and in data set [4] was at least 80% throughout. For the same compound, the mortality at 200 ppm in data set [5] was at least 80%.
For `CCS(=O)(=O)c1cc(C2CC2)cnc1C(=O)/N=c1\ccc(SC(F)(F)F)cn1C` [Compound P18, (N)-5-cyclopropyl-3-ethylsulfonyl-N-[1-methyl-5-(trifluoromethylsulfanyl)-2-pyridylidene]pyridine-2-carboxamide], in data set [1], the percent control (mortality, anti-feedant effect or growth inhibition) at 200 ppm is at least 80%. The percent effect (mortality or growth inhibition) at 200 ppm in data set [3] and in data set [4] was at least 80% in each case. For the same compound, the mortality at 200 ppm in data set [5] and in data set [6] was at least 80% throughout.
With `CCSc1cc(-c2ccc(Cl)cc2)cnc1C(=O)/N=c1\sc(C(F)(F)F)nn1C`, the melting point lay within 147 to 148 °C.
Regarding `CCSc1cc(-c2ccc(C(F)(F)F)cc2)cnc1C(=O)/N=c1\sc(C(F)(F)C(F)(F)F)nn1C`, the melting point fell in the range of 173 to 175 °C.
For `CCS(=O)(=O)c1cc(-c2ccnc(F)c2)cnc1C(=O)/N=c1\sc(C(F)(F)F)nn1C` [Compound P54], the percent control (mortality, anti-feedant effect or growth inhibition) at 200 ppm in data set [1] was at least 80%. For the same compound, in data set [2], the percent control (mortality, anti-feedant effect or growth inhibition) at 12.5 ppm is at least 80%. For the same compound, the percent effect (mortality or growth inhibition) at 200 ppm in data set [3] and in data set [4] was at least 80% each time. Further, the mortality at 200 ppm in data set [5] and in data set [6] was at least 80% in each case.
Compound `CCS(=O)(=O)c1cc(-c2cccc(Cl)c2)cnc1C(=O)/N=c1\sc(C(F)(F)F)nn1C` came in with a melting point of 184 to 186 °C.
In turn, `CCS(=O)(=O)c1cc(-c2ccc(C(F)(F)F)cc2)ccc1C(=O)/N=c1\sc(C(F)(F)F)nn1C` had a melting point of 140 to 142 °C.
As to `CCS(=O)(=O)c1cc(-c2ccc(C(F)(F)F)cc2)cnc1C(=O)N=c1ccc(SC(F)(F)F)cn1C` [Compound P16], the percent control (mortality, anti-feedant effect or growth inhibition) at 200 ppm in data set [1] was at least 80%. In addition, the percent effect (mortality or growth inhibition) at 200 ppm in data set [3] and in data set [4] was at least 80% each time. For the same compound, the mortality at 200 ppm in data set [5] and in data set [6] was at least 80% in each case.
